Test results reported in patent US20080125445A1, “5,6-Dialkyl-7-Amino-Azolopyrimidines, Method For Their Production, Their Use For Controlling Pathogenic Fungi and Agents Containing Said Compounds” (BASF Aktiengesellschaft, priority 2005, published 2008).

System: Plasmopara viticola
Experiment: Activity against Peronospora of grapevines caused by Plasmopara viticola (comparative test, protective spray)
Assay type: in vivo
Conditions: leaves of potted grapevines sprayed to runoff, inoculated next day; infection on undersides of leaves determined visually; untreated 100%; active compound concentration not given
Experimental: The active compounds were prepared as a stock solution comprising 25 mg of active compound which was made up to 10 ml using a mixture of acetone and/or DMSO and the emulsifier Uniperol® EL (wetting agent having emulsifying and dispersing action based on ethoxylated alkylphenols) in a volume ratio of solvent/emulsifier of 99/1. The mixture was then made up to 100 ml with water. This stock solution was diluted with the solvent/emulsifier/water mixture described to the concentration of active compounds stated below. Leaves of potted grapevines were sprayed to runoff point with an aqueous suspension having the concentration of active compound stated below. The next day, the undersides of the leaves were inoculated with an aqueous sporangia suspension of Plasmopara viticola. The grapevines were then initially placed in a water vapor-saturated chamber at 24° C. for 48 hours and then in a greenhouse at temperatures between 20 and 30° C. for 5 days. After this time, the plants were again placed into a moist chamber for 16 hours to accelerate sporangiophore eruption. The extent of the development of the infection on the undersides of the leaves was then determined visually.

| Compound | Infection in % [%] |
| --- | --- |
| CCCCc1nc2cc(C)nn2c(N)c1CCCC [Compound 17] | 25 |
| CCCCCc1nc2cc(C)nn2c(N)c1CCCCC [Compound I-1, 2-methyl-5,6-dipentylpyrazolo[1,5-a]pyrimidin-7-ylamine] | 3 |
